This data set in a line: in vitro. To be noted: human, hela cells, % viability.

`CCC1CCCCN1C(=O)c1ccc(C(F)(F)F)cc1` (stereo not shown) [CBK081165]: the viability at 28.5 h, 10 µM is 107%.

On to `COc1ccc(CC(=O)N2CCCC2c2nnc3ccccn23)cc1` (stereo not shown) [CBK304719], for which the viability at 28.5 h, 10 µM turned out to be 117%.

Regarding `O=C(O)C1CCN(C2CC(=O)N(Cc3ccccc3)C2=O)CC1` (stereo not shown) [CBK287206], the viability at 28.5 h, 10 µM was 84.8%.

Regarding `COc1cc(C)c(C)cc1S(=O)(=O)n1cnc2ccccc21` [CBK287578], the viability at 28.5 h, 10 µM worked out at 89.2%.

In the case of `C=CCNC(=O)[C@@H]1C=CCN1S(=O)(=O)c1ccc(Cl)cc1` [CBK284318], the viability at 28.5 h, 10 µM is 90.4%.

Regarding `C[C@@H](Cn1nc2c(cc1=O)CCCC2)NC(=O)Cc1ccc(F)cc1` [CBK284526], the viability at 28.5 h, 10 µM was 100%.

Regarding `CC(=O)Nc1cc(C(=O)Nc2ccc(Br)cc2)ccc1C` [CBK267788], the viability at 28.5 h, 10 µM stood at 84.1%.

In the case of `CC(/C=C1\SC(=S)N(CCC(=O)Nc2ccc(O)c(C(=O)O)c2)C1=O)=C\c1ccccc1` [CBK263875], the viability at 28.5 h, 10 µM worked out at 107%.

`CC(C)NC(=O)Nc1ccc(C(=O)N(CCC#N)C(C)C2CC2)cc1` (stereo not shown) [CBK305312]: the viability at 28.5 h, 10 µM is 110%.

Consider `O=S(=O)(N1CCCCCC1)n1ccnc1` [CBK269241], for which the viability at 28.5 h, 10 µM stood at 92.1%.

Turning to `O=C(NCCCn1ccnc1)c1cc(-c2cccc(Br)c2)nc2ccccc12` [CBK265476], the viability at 28.5 h, 10 µM stood at 91.4%.

For `O=C(N/N=C/c1ccc[nH]1)C1CC1c1ccccc1` (stereo not shown) [CBK022120], the viability at 28.5 h, 10 µM was 98.8%.

For the molecule `O=C(Nc1ccc2[nH]ccc2c1)c1cnc(-c2ccc(F)cc2)c(-c2ccncc2)c1` [CBK037451], the viability at 28.5 h, 10 µM stood at 91.9%.

In the case of `Clc1cccc(Nc2nc(Br)cn3ccnc23)c1` [CBK066260], the viability at 28.5 h, 10 µM is 80.6%.

As to `COCCNc1nc(-c2cccs2)cn2ccnc12` [CBK066408], the viability at 28.5 h, 10 µM amounted to 99.3%.

As for `COc1ccc2c(c1OC)C(=O)N(c1cccc(/C=C/C(=O)O)c1)C2` [CBK109932], the viability at 28.5 h, 10 µM was determined as 90.3%.

In the case of `C[S+]([O-])CCNC(=O)c1cc(-c2ccc(F)cc2)no1` (stereo not shown) [CBK283251], the viability at 28.5 h, 10 µM worked out at 89.6%.

On to `CC(C)(C)C(=O)NC1(C(F)(F)F)N=C(c2ccccc2)NC1=O` (stereo not shown) [CBK267475], for which the viability at 28.5 h, 10 µM is 88.7%.

Turning to `NS(=O)(=O)c1ccc(Nc2ncccc2[N+](=O)[O-])cc1` [CBK261724], the viability at 28.5 h, 10 µM was determined as 91.6%.

On to `COc1ccc(/C=C(\C)C(=O)Nc2ccc(N3CCNCC3)c3ccccc23)cc1OC` [CBK038913T], for which the viability at 28.5 h, 10 µM is 92.4%.

Regarding `CN(CCO)C(=O)c1cn2cc(-c3cccs3)n(CC3CC3)c(=O)c2n1` [CBK307370], the viability at 28.5 h, 10 µM came out at 92.8%.

As to `CC1(C(=O)O)CC(C)(C(=O)O)CC(C)(C(=O)O)C1` (stereo not shown) [CBK266107], the viability at 28.5 h, 10 µM was found to be 91.8%.

Turning to `Cc1ccc(S(=O)(=O)Nc2ccc(S(=O)(=O)Nc3nccs3)cc2)c([N+](=O)[O-])c1` [CBK267410], the viability at 28.5 h, 10 µM came to 85.9%.

As to `O=c1cc(NCCCN2CCN(Cc3ccccc3)CC2)c2ccccc2o1` [CBK011079], the viability at 28.5 h, 10 µM is 81%.

As to `COc1ccc(CCc2nc(C)cc(CN(C)C)c2O)cc1` [CBK278313C], the viability at 28.5 h, 10 µM worked out at 106%.

On to `O=S(=O)(c1ccccc1Br)N1CCOCC1` [CBK062404], for which the viability at 28.5 h, 10 µM worked out at 96.9%.

Consider `O=C(O)C1C2CCC(O2)C1C(=O)NCc1ccco1` (stereo not shown) [CBK263675], for which the viability at 28.5 h, 10 µM came out at 96.8%.

`CC(C)OC(=O)CN1C(=O)N2CCCN=C2c2ccccc21` [CBK284394]: the viability at 28.5 h, 10 µM was found to be 89.4%.

Consider `O=C(Nc1cccc(-c2nc3ccccc3s2)c1)c1ccc(Cn2cnnn2)cc1` [CBK285823], for which the viability at 28.5 h, 10 µM is 85.2%.

For the molecule `CSCCN1CCCC2(CCN(C(=O)c3ccoc3)C2)C1` (stereo not shown) [CBK132835], the viability at 28.5 h, 10 µM is 88.7%.

Consider `Cn1ccnc1C(NC(=O)Cc1ccc(O)cc1)c1ccccc1` (stereo not shown) [CBK283723], for which the viability at 28.5 h, 10 µM is 87.9%.

As to `COc1ccc(C(=O)N2C[C@@H]3C[C@H](C2)c2ccc(NC(=O)C4CC4)c(=O)n2C3)cc1` [CBK289072], the viability at 28.5 h, 10 µM was 90%.

For the molecule `O=C(Nc1nccs1)c1nccnc1-c1ccc(COc2ccccc2)cc1` [CBK050839], the viability at 28.5 h, 10 µM came to 95.6%.

For `COc1ccc(C2CC(c3c(-c4ccccc4)c4cc(Cl)ccc4[nH]c3=O)=NN2C(=O)CCC(=O)O)cc1OC` (stereo not shown) [CBK296128], the viability at 28.5 h, 10 µM turned out to be 103%.

For `CCCc1ccc(S(=O)(=O)Nc2cccc(C(=O)N3CCN(C)CC3)c2)cc1` [CBK039034], the viability at 28.5 h, 10 µM is 122%.

For `O=C(Cn1ccc(=O)[nH]c1=O)NCc1cccnc1-n1cccn1` [CBK305705], the viability at 28.5 h, 10 µM came to 85%.

As to `CCOC(=O)c1nc(N)c2c(CC#N)nn(C)c2n1` [CBK023254], the viability at 28.5 h, 10 µM turned out to be 109%.

For `O=C(c1ccc([N+](=O)[O-])cc1Cl)N1CCN(Cc2ccccc2)CC1` [CBK261778], the viability at 28.5 h, 10 µM turned out to be 103%.

For `COC(=O)c1cccc(Cn2cc(/C=C\[N+](=O)[O-])c3ccccc32)c1` [CBK269020], the viability at 28.5 h, 10 µM is 93.4%.

In the case of `COc1nc(NCCN2CCOCC2)nc(Nc2ccc(Cl)cc2)n1` [CBK262541], the viability at 28.5 h, 10 µM was 102%.

With `Cn1c(=O)n(CCN2CCOCC2)c(=O)c2c1nc1n2CCN1c1ccc(Oc2ccccc2)cc1` [CBK269202], the viability at 28.5 h, 10 µM stood at 91.4%.

Turning to `Cc1ccc(S(=O)(=O)N(CC(=O)O)c2cccc(Cl)c2)cc1` [CBK262387], the viability at 28.5 h, 10 µM was 91.7%.

On to `Cc1nc(C2CCCN(C(=O)CCn3cccn3)C2)c2sccn12` (stereo not shown) [CBK285234], for which the viability at 28.5 h, 10 µM was found to be 86.7%.

In the case of `Cc1c(OCc2ccccc2)ccc2c1OC1(CCN(C(=O)c3ccsc3)CC1)CC2=O` [CBK156445], the viability at 28.5 h, 10 µM came out at 109%.

For the molecule `Cc1nc2c(c(=O)[nH]1)CC[C@@H]1CN(C(=O)Cc3ccsc3)C[C@H]21` [CBK284411], the viability at 28.5 h, 10 µM worked out at 83.5%.

As for `Cc1cc(CC(=O)N2CCN(C(=O)c3ccco3)CC2)on1` [CBK144465], the viability at 28.5 h, 10 µM came to 96.3%.

With `c1cnn(CC2CCCCN2c2ncnc3ccsc23)c1` (stereo not shown) [CBK304843], the viability at 28.5 h, 10 µM came out at 88.3%.

With `CCCCCOc1ccc(Nc2cc(-c3ccc(N(C)C)cc3)ncn2)cc1` [CBK090889], the viability at 28.5 h, 10 µM came out at 106%.

With `O=C(O)c1ccc(NS(=O)(=O)c2cccs2)cc1O` [CBK092145], the viability at 28.5 h, 10 µM is 101%.

Turning to `Cc1cc(NS(=O)(=O)c2ccc(OCCNS(C)(=O)=O)cc2)no1` [CBK268530], the viability at 28.5 h, 10 µM is 102%.

Consider `Cn1c(=O)c2cnc(-c3ccccc3Cl)nc2n(C)c1=O` [CBK291219], for which the viability at 28.5 h, 10 µM was 85.7%.

With `C[C@@H]1c2c(C(=O)OC(C)(C)C)ncn2-c2ccc(F)cc2N1CC(=O)N1CCCC1` [CBK016704], the viability at 28.5 h, 10 µM is 85.3%.

Take `CCNC(=O)N(C)C1CCN(c2ncnc3ccccc23)CC1` [CBK305537]: the viability at 28.5 h, 10 µM was found to be 110%.

`O=CN1CCc2c([nH]c3cc(F)ccc23)C12CCN(CCc1ccc3c(c1)OCO3)CC2` [CBK039614]: the viability at 28.5 h, 10 µM worked out at 86.5%.

As for `CS(=O)(=O)N1CC2(CCN(Cc3cccc(C(F)(F)F)c3)CC2)c2ccccc21` [CBK126670], the viability at 28.5 h, 10 µM is 96.8%.

With `Cc1ccc(S(=O)(=O)n2nncc2C)cc1` [CBK001921], the viability at 28.5 h, 10 µM was determined as 111%.

In the case of `O=C(NCCN1CCCC1)c1cnc2cc(C(F)(F)F)ccc2c1O` [CBK107426], the viability at 28.5 h, 10 µM is 104%.

As for `CC(C)(CN)CN(Cc1ccccc1C(F)(F)F)C(=O)NCc1ccc(F)cc1` [CBK002471C], the viability at 28.5 h, 10 µM is 87.8%.

For the molecule `CC(C)[C@@H](CO)Nc1cncc(-c2ccc(O)cc2)n1` [CBK066038], the viability at 28.5 h, 10 µM came out at 97.8%.

For `CSc1oc(-c2ccccc2)nc1C(N)=O` [CBK067744], the viability at 28.5 h, 10 µM turned out to be 98.4%.

As to `CCN1CCCC1CNC(=O)c1cccc(Cl)c1` (stereo not shown) [CBK262621], the viability at 28.5 h, 10 µM worked out at 84.3%.

With `Cc1ccc(S(=O)(=O)Nc2sccc2C(=O)O)cc1` [CBK042244], the viability at 28.5 h, 10 µM was 98.6%.

For `O=C(c1cc2c([nH]1)CCCC2)N1CCC(CCN2CCOCC2)CC1` [CBK281869], the viability at 28.5 h, 10 µM was 88.9%.

Regarding `O=C(CCc1cccnc1)NC(Cc1ccsc1)c1nccs1` (stereo not shown) [CBK284665], the viability at 28.5 h, 10 µM was 99.5%.

On to `O=C(CCN1CCCCC1)Nc1ccc2c(=O)n3c(nc2c1)/C(=C/c1ccccc1)CC3` [CBK017786], for which the viability at 28.5 h, 10 µM came out at 94.1%.

Consider `CCSc1ccc(-c2cn3ccnc3c(N3CCN(CCN(C)C)CC3)n2)cc1` [CBK066662], for which the viability at 28.5 h, 10 µM stood at 92.8%.

Take `Cc1cccc(-c2noc(C)c2C(=O)NCCn2ccc(C)n2)c1` [CBK282656]: the viability at 28.5 h, 10 µM stood at 96.4%.

As for `CC(=O)Nc1ccc(S(=O)(=O)Nc2ccc(C(=O)N3CCOCC3)cc2)cc1` [CBK034564], the viability at 28.5 h, 10 µM is 94.9%.

For `Cc1ccc(C2CC(c3cccnc3)Nc3nnnn32)cc1` (stereo not shown) [CBK288067], the viability at 28.5 h, 10 µM came to 97.9%.

With `C=CCN1C(=O)C2(Nc3ccccc3C(=O)N2c2ccc(Cl)cc2)c2ccccc21` (stereo not shown) [CBK093474], the viability at 28.5 h, 10 µM was found to be 106%.

For the molecule `O=C(Nc1ccc2nc(-c3ccc(-c4nc5ccc(NC(=O)c6cccc7ccccc67)cc5[nH]4)cc3)[nH]c2c1)c1cccc2ccccc12` [CBK261160], the viability at 28.5 h, 10 µM was determined as 120%.

On to `COc1ccc(C[C@@H]2NC(=O)[C@H]3CN(C(=O)c4cccn4C)CCN3C2=O)cc1` [CBK289616], for which the viability at 28.5 h, 10 µM was determined as 93.4%.

With `O=C(Cn1ncn2c(cc3ccsc32)c1=O)NCc1cccs1` [CBK284197], the viability at 28.5 h, 10 µM is 90.3%.

In the case of `NCCCC(=O)OC1N=C(c2ccccc2Cl)c2cc(Br)ccc2NC1=O` (stereo not shown) [CBK264689B], the viability at 28.5 h, 10 µM (bulk resorufin, single well) was determined as 104%.

On to `Cc1cccn2c(CN3CCC(O)CC3)c(C(=O)N3CCCCC3)nc12` [CBK307639], for which the viability at 28.5 h, 10 µM worked out at 104%.

`CC(O)c1nc2ccccc2n1C` (stereo not shown) [CBK115560]: the viability at 28.5 h, 10 µM was 94.9%.

As to `Cc1c(C)n(Cc2ccccc2)c2ccc(C(=O)OCCN3CCOCC3)cc12` [CBK262427], the viability at 28.5 h, 10 µM came to 104%.

For `Cc1cc(C)n(-c2cccc(C(=O)NCCn3ccnc3)c2)n1` [CBK281585], the viability at 28.5 h, 10 µM is 109%.

As for `Cc1c(C(=O)N2CCC(n3cncn3)CC2)sc2cccc(F)c12` [CBK305520], the viability at 28.5 h, 10 µM came out at 103%.

The record behind these values is paper PMC12040169 (PLOS Biology, 2025).
